Converted amounts (≈) assume the structure as drawn. The source made the active and inactive calls. No cut-off for these calls is given here.
Key:
Pseudomonas aeruginosa [1] = assay: Antibacterial activity against Pseudomonas aeruginosa 19660 assessed as inhibition of bacterial growth incubated for 16 to 20 hrs in presence of human serum; assay type: functional; conditions: time 16-20 hrs
Klebsiella pneumoniae [2] = assay: Bactericidal activity against Klebsiella pneumoniae BAA 2473 assessed as inhibition of bacterial growth in presence of 10 microg/ml of pepsin (reference value: 1.56 to 3.13 microM); assay type: functional
Klebsiella pneumoniae [3] = assay: Bactericidal activity against Klebsiella pneumoniae BAA 2473 assessed as inhibition of bacterial growth in presence of 1 microg/ml of pepsin (reference value: 1.56 to 3.13 microM); assay type: functional
Enterococcus faecium [4] = assay: Antibacterial activity against Enterococcus faecium 10067 assessed as inhibition of bacterial growth incubated for 16 to 20 hrs in presence of human serum; assay type: functional; conditions: time 16-20 hrs
Klebsiella pneumoniae [5] = assay: Antibacterial activity against Klebsiella pneumoniae BAA 2473 assessed as inhibition of bacterial growth in presence of ciprofloxacin; assay type: functional
Salmonella enterica [6] = assay: Bactericidal activity against Salmonella enterica 15455 assessed as inhibition of bacterial growth incubated for 16 to 20 hrs; assay type: functional; conditions: time 16-20 hrs
Rhizopus arrhizus [7] = assay: Fungicidal activity against Rhizopus oryzae 34550 assessed as inhibition of fungal growth incubated for 16 to 20 hrs in presence of human serum; assay type: functional; conditions: time 16-20 hrs
Salmonella enterica [8] = assay: Antibacterial activity against Salmonella enterica 15455 assessed as inhibition of bacterial growth incubated for 16 to 20 hrs in presence of human serum; assay type: functional; conditions: time 16-20 hrs
[9] = test system: Staphylococcus haemolyticus; assay: Bactericidal activity against Staphylococcus haemolyticus 15237 assessed as inhibition of bacterial growth incubated for 16 to 20 hrs; assay type: functional; conditions: time 16-20 hrs
Klebsiella pneumoniae [10] = assay: Antibacterial activity against Klebsiella pneumoniae BAA 2473 assessed as doxycycline MIC; assay type: functional
Pseudomonas aeruginosa [11] = assay: Bactericidal activity against Pseudomonas aeruginosa 19660 assessed as inhibition of bacterial growth incubated for 16 to 20 hrs; assay type: functional; conditions: time 16-20 hrs
Klebsiella pneumoniae [12] = assay: Bactericidal activity against Klebsiella pneumoniae BAA 2473 assessed as inhibition of bacterial growth in presence of 0.1 microg/ml of trypsin (reference value: 1.56 to 3.13 microM); assay type: functional
Yersinia enterocolitica [13] = assay: Bactericidal activity against Yersinia enterocolitica 13999 assessed as inhibition of bacterial growth incubated for 16 to 20 hrs; assay type: functional; conditions: time 16-20 hrs
Klebsiella aerogenes = assay: Bactericidal activity against Enterobacter aerogenes 15630 assessed as inhibition of bacterial growth incubated for 16 to 20 hrs; assay type: functional; conditions: time 16-20 hrs
Klebsiella oxytoca [14] = assay: Antibacterial activity against Klebsiella oxytoca 13985 assessed as inhibition of bacterial growth incubated for 16 to 20 hrs in presence of human serum; assay type: functional; conditions: time 16-20 hrs
Klebsiella pneumoniae [15] = assay: Bactericidal activity against Klebsiella pneumoniae BAA 2473 assessed as inhibition of bacterial growth in presence of 10 microg/ml of trypsin (reference value: 1.56 to 3.13 microM); assay type: functional
Klebsiella pneumoniae [16] = assay: Antibacterial activity against Klebsiella pneumoniae BAA 2473 assessed as inhibition of bacterial growth in presence of 10 microg/ml of chymotrypsin (reference value: 1.56 to 3.13 microM); assay type: functional
Klebsiella pneumoniae [17] = assay: Bactericidal activity against Klebsiella pneumoniae BAA 2473 assessed as inhibition of bacterial growth in presence of 10 microg/ml of chymotrypsin (reference value: 1.56 to 3.13 microM); assay type: functional
Klebsiella pneumoniae [18] = assay: Antibacterial activity against Klebsiella pneumoniae BAA 2473 assessed as inhibition of bacterial growth in presence of 1 microg/ml of pepsin (reference value: 1.56 to 3.13 microM); assay type: functional
Enterococcus faecium [19] = assay: Bactericidal activity against Enterococcus faecium 10067 assessed as inhibition of bacterial growth incubated for 16 to 20 hrs in presence of human serum; assay type: functional; conditions: time 16-20 hrs
Salmonella enterica [20] = assay: Bactericidal activity against Salmonella enterica 15455 assessed as inhibition of bacterial growth incubated for 16 to 20 hrs in presence of human serum; assay type: functional; conditions: time 16-20 hrs
Klebsiella pneumoniae [21] = assay: Bactericidal activity against Klebsiella pneumoniae BAA 2473 assessed as inhibition of bacterial growth incubated for 16 to 20 hrs; assay type: functional; conditions: time 16-20 hrs
Vibrio vulnificus [22] = assay: Antibacterial activity against Vibrio vulnificus 204 assessed as inhibition of bacterial growth incubated for 16 to 20 hrs in presence of human serum; assay type: functional; conditions: time 16-20 hrs
Erythrocyte = assay: Hemolytic activity in human Red blood cells assessed as hemolysis at 200 uM incubated for 1 hrs; assay type: toxicity, cell-based
Salmonella typhimurium = assay: Bactericidal activity against Salmonella typhimurium DT104 assessed as inhibition of bacterial growth incubated for 16 to 20 hrs in presence of human serum; assay type: functional, Salmonella enterica subsp. enterica serovar Typhimurium; conditions: Salmonella enterica, time 16-20 hrs
Klebsiella pneumoniae [23] = assay: Antibacterial activity against Klebsiella pneumoniae BAA 2473 assessed as bacterial eradication measured at 10 hrs; assay type: functional, organism-based
[24] = test system: Staphylococcus haemolyticus; assay: Antibacterial activity against Staphylococcus haemolyticus 15237 assessed as inhibition of bacterial growth incubated for 16 to 20 hrs; assay type: functional; conditions: time 16-20 hrs
Staphylococcus aureus = assay: Antibacterial activity against Staphylococcus aureus 10780 assessed as inhibition of bacterial growth incubated for 16 to 20 hrs in presence of human serum; assay type: functional; conditions: time 16-20 hrs
Klebsiella pneumoniae [25] = assay: Antibacterial activity against Klebsiella pneumoniae 10692 assessed as inhibition of bacterial growth incubated for 16 to 20 hrs; assay type: functional; conditions: time 16-20 hrs
Klebsiella oxytoca [26] = assay: Bactericidal activity against Klebsiella oxytoca 13985 assessed as inhibition of bacterial growth incubated for 16 to 20 hrs; assay type: functional; conditions: time 16-20 hrs
Yersinia enterocolitica [27] = assay: Antibacterial activity against Yersinia enterocolitica 13999 assessed as inhibition of bacterial growth incubated for 16 to 20 hrs; assay type: functional; conditions: time 16-20 hrs
Vibrio vulnificus [28] = assay: Bactericidal activity against Vibrio vulnificus 204 assessed as inhibition of bacterial growth incubated for 16 to 20 hrs; assay type: functional; conditions: time 16-20 hrs
Rhizopus arrhizus [29] = assay: Antifungal activity against Rhizopus oryzae 34550 assessed as inhibition of fungal growth incubated for 16 to 20 hrs; assay type: functional; conditions: time 16-20 hrs
Cell membrane = assay: Induction of cell membrane depolarization in Klebsiella pneumoniae BAA 2473 assessed as increase in fluorescence intensity at 1 times MIC incubated for 40 mins by DiBAC4(3) fluorescent dye based assay; assay type: cell membranes
Klebsiella pneumoniae [30] = assay: Antibacterial activity against Klebsiella pneumoniae TL 297 assessed as inhibition of bacterial growth incubated for 16 to 20 hrs in presence of human serum; assay type: functional; conditions: time 16-20 hrs
Vibrio vulnificus [31] = assay: Bactericidal activity against Vibrio vulnificus 204 assessed as inhibition of bacterial growth incubated for 16 to 20 hrs in presence of human serum; assay type: functional; conditions: time 16-20 hrs
Acinetobacter baumannii [32] = assay: Bactericidal activity against Acinetobacter baumannii 10591 assessed as inhibition of bacterial growth incubated for 16 to 20 hrs in presence of human serum; assay type: functional; conditions: time 16-20 hrs
Klebsiella pneumoniae [33] = assay: Antibacterial activity against Klebsiella pneumoniae BAA 2473 assessed as inhibition of bacterial growth in presence of 0.1 microg/ml of proteinase K (reference value: 1.56 to 3.13 microM); assay type: functional
Klebsiella pneumoniae [34] = assay: Bactericidal activity against Klebsiella pneumoniae BAA 2473 assessed as inhibition of bacterial growth in presence of 1 microg/ml of trypsin (reference value: 1.56 to 3.13 microM); assay type: functional
Escherichia coli = assay: Bactericidal activity against Escherichia coli 10675 assessed as inhibition of bacterial growth incubated for 16 to 20 hrs in presence of human serum; assay type: functional; conditions: time 16-20 hrs
Acinetobacter baumannii [35] = assay: Bactericidal activity against Acinetobacter baumannii 10591 assessed as inhibition of bacterial growth incubated for 16 to 20 hrs; assay type: functional; conditions: time 16-20 hrs
Klebsiella pneumoniae [36] = assay: Antibacterial activity against Klebsiella pneumoniae BAA 2473 assessed as inhibition of bacterial growth in presence of 1 microg/ml of trypsin (reference value: 1.56 to 3.13 microM); assay type: functional

Q: Which results are given for `CC(C)C[C@H](NC(=O)[C@@H](C)NC(=O)[C@@H](CCCCN)NC(=O)[C@H](CC(C)C)NC(=O)[C@@H](CC(C)C)NC(=O)[C@@H](CCCCN)NC(=O)[C@H](CCCCN)NC(=O)[C@@H](CC(C)C)NC(=O)[C@H](N)Cc1ccccc1)C(=O)N[C@H](Cc1ccccc1)C(=O)N[C@H](CO)C(=O)N[C@@H](C)C(=O)N1CCC[C@@H]1C(=O)N[C@H](CCCCN)C(=O)N[C@@H](C)C(=O)N[C@H](CC(C)C)C(=O)N[C@H](CCCCN)C(=O)N[C@@H](CCCNC(=N)N)C(=O)N[C@H](CC(C)C)C(=O)N[C@H](CC(C)C)C(=O)N[C@@H](CCCNC(=N)N)C(=O)N[C@H](CCCNC(=N)N)C(=O)N[C@H](CCCNC(=N)N)C(=O)N[C@@H](CCCNC(=N)N)C(=O)N[C@@H](CCCNC(=N)N)C(=O)O`?
A: MIC (Pseudomonas aeruginosa [1]): 6.25 µM; MBC (Klebsiella pneumoniae [2]): 1.56 µM; MBC (Klebsiella pneumoniae [3]): 1.56 µM; MIC (Enterococcus faecium [4]): 100 µM; MIC (Klebsiella pneumoniae [5]): 1.56 µM; MBC (Salmonella enterica [6]): 3.13 µM (≈ 9.64 µg/mL); MFC (Rhizopus arrhizus [7]): 100 µM; MIC (Salmonella enterica [8]): 0.78 µM; MBC [9]: 1.56 µM (≈ 4.8 µg/mL); MIC (Klebsiella pneumoniae [10]): 1.56 µM; MBC (Pseudomonas aeruginosa [11]): 3.13 µM (≈ 9.64 µg/mL); MBC (Klebsiella pneumoniae [12]): 1.56 µM; MBC (Yersinia enterocolitica [13]): 3.13 µM (≈ 9.64 µg/mL); MBC (Klebsiella aerogenes): 3.13 µM (≈ 9.64 µg/mL); MIC (Klebsiella oxytoca [14]): 6.25 µM; MBC (Klebsiella pneumoniae [15]): 1.56 µM; MIC (Klebsiella pneumoniae [16]): 0.78 µM; MBC (Klebsiella pneumoniae [17]): 0.78 µM; MIC (Klebsiella pneumoniae [18]): 0.78 µM; MBC (Enterococcus faecium [19]): 100 µM; MBC (Salmonella enterica [20]): 0.78 µM; MBC (Klebsiella pneumoniae [21]): 25 µM (≈ 77 µg/mL); MIC (Vibrio vulnificus [22]): 12.5 µM; Activity (Erythrocyte): Non-Toxic; MBC (Salmonella typhimurium): 6.25 µM; Activity (Klebsiella pneumoniae [23]): Active; MIC [24]: 1.56 µM (≈ 4.8 µg/mL); MIC (Staphylococcus aureus): 6.25 µM; MIC (Klebsiella pneumoniae [25]): 6.25 µM (≈ 19.2 µg/mL); MBC (Klebsiella oxytoca [26]): 3.13 µM (≈ 9.64 µg/mL); MIC (Yersinia enterocolitica [27]): 3.13 µM (≈ 9.64 µg/mL); MBC (Vibrio vulnificus [28]): 12.5 µM (≈ 38.5 µg/mL); MIC (Rhizopus arrhizus [29]): 1.56 µM (≈ 4.8 µg/mL); Activity (Cell membrane): Active; MIC (Klebsiella pneumoniae [30]): 1.56 µM; MBC (Vibrio vulnificus [31]): 12.5 µM; MBC (Acinetobacter baumannii [32]): 3.13 µM; MIC (Klebsiella pneumoniae [33]): 0.78 µM; MBC (Klebsiella pneumoniae [34]): 1.56 µM; MBC (Escherichia coli): 0.78 µM; MBC (Acinetobacter baumannii [35]): 3.13 µM (≈ 9.64 µg/mL); MIC (Klebsiella pneumoniae [36]): 0.78 µM
